In the assay the test system is barrows. The assay can be described thus: Fast growth study (Example 2): average daily growth, gait score, lameness incidence. The class given is in vivo, pig. As to conditions: pigs fed RAC 10 ppm last 25 days, regardless of diet. How it is done:
A study was conducted in 144 healthy barrows, in which serum biomarkers were measured over 69 days at day 0, day 28, and day 69. Fast growth was induced in some pigs as explained below.
The study was a 2×2 factorial study. The first factor was diet. Pigs were fed either inorganic trace minerals (ITM) or Mintrex° (MTX), an organic mineral. The ITM included a ratio of 120-20-40 ppm Zn—Cu—Mn. The MTX included a ratio of 80-10-20 ppm Zn—Cu—Mn.
The second factor was feeding ractopamine (RAC; a beta-adrenergic agonist) to induce fast growth. Pigs were fed ractopamine at either 0 ppm or 10 ppm during the last 25 days of the trial.

We go through 1 compound from patent US20230108093A1, “METHODS FOR PREDICTING AND TREATING LAMENESS” (Novus International, Inc., priority 2021, published 2023).

As to `CC(CCc1ccc(O)cc1)NCC(O)c1ccc(O)cc1` (racemic) [RAC, ractopamine], the “ADG (average daily growth)” value was “increased”.
